Laboratory results as given in article PMC6704710, “Preclinical evaluation of 3D185, a novel potent inhibitor of FGFR1/2/3 and CSF-1R, in FGFR-dependent and macrophage-dominant cancer models” (Journal of Experimental & Clinical Cancer Research : CR, 2019).

Assays:
Test in all cases: Eurofins kinase panel
Type in all cases: biochemical
Settings in all cases: read-out: Inhibition rate (%)
[1] = molecular target: T1, PI3 Kinase (p110δ/p85α)(h) (Homo sapiens, UniProt O00329)
T1 construct: purchased Eurofins (KinaseProfiler)
T1 sequence (O00329 whole entry): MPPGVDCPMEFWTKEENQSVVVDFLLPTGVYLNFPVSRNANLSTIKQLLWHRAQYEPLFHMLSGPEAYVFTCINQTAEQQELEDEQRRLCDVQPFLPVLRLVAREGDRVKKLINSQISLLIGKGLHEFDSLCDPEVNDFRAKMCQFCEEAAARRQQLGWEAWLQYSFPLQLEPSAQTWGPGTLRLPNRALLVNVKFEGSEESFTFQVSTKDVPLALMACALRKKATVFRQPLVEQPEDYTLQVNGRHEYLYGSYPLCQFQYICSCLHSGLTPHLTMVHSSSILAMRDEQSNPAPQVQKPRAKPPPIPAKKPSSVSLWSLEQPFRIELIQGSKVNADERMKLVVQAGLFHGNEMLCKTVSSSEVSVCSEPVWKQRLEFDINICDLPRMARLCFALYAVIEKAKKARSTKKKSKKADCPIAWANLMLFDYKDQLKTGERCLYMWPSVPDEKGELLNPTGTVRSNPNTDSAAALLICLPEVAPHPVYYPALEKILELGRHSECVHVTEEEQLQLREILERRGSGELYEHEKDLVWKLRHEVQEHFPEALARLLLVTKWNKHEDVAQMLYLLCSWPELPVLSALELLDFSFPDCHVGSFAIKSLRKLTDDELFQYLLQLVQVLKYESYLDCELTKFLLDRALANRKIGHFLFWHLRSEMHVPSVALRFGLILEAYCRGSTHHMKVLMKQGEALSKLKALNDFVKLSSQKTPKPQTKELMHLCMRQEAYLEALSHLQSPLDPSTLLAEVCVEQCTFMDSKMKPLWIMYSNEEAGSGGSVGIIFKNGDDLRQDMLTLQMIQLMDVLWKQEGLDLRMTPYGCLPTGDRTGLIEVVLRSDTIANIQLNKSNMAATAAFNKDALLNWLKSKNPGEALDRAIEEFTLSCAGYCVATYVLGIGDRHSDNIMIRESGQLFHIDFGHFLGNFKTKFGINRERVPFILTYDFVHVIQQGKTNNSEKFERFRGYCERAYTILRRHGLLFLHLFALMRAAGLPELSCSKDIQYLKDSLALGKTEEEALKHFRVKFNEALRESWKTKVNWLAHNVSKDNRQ
T1 sequence (P27986 whole entry partner): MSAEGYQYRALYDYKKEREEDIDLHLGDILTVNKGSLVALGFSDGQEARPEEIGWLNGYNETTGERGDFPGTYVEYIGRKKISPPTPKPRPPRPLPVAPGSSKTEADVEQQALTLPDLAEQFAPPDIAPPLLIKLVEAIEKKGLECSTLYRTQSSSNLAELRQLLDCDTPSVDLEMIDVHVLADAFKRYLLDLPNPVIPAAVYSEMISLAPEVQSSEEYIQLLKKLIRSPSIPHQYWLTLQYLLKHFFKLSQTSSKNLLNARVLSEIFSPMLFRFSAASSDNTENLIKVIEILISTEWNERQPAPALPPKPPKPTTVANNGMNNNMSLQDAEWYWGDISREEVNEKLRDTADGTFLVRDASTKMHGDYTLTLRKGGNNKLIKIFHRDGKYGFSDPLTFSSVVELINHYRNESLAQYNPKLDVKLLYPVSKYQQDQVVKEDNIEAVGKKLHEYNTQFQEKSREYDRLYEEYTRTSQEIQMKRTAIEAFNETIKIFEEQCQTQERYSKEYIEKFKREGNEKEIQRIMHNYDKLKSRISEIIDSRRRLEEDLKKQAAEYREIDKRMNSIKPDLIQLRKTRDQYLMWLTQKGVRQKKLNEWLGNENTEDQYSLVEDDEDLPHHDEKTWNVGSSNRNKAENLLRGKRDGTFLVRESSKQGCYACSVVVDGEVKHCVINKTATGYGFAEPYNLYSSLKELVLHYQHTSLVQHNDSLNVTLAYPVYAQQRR

Syk(h) = molecular target: T2, Syk(h) (Homo sapiens, UniProt P43405)
T2 construct: purchased Eurofins (KinaseProfiler)

DNA-PK(h) = molecular target: T3, DNA-PK(h) (Homo sapiens, UniProt P78527)
T3 construct: purchased Eurofins (KinaseProfiler)

PI3 Kinase (p120γ)(h) = molecular target: T4, PI3 Kinase (p120γ)(h) (Homo sapiens, UniProt P48736)
T4 construct: purchased Eurofins (KinaseProfiler)
T4 sequence (P48736 whole entry): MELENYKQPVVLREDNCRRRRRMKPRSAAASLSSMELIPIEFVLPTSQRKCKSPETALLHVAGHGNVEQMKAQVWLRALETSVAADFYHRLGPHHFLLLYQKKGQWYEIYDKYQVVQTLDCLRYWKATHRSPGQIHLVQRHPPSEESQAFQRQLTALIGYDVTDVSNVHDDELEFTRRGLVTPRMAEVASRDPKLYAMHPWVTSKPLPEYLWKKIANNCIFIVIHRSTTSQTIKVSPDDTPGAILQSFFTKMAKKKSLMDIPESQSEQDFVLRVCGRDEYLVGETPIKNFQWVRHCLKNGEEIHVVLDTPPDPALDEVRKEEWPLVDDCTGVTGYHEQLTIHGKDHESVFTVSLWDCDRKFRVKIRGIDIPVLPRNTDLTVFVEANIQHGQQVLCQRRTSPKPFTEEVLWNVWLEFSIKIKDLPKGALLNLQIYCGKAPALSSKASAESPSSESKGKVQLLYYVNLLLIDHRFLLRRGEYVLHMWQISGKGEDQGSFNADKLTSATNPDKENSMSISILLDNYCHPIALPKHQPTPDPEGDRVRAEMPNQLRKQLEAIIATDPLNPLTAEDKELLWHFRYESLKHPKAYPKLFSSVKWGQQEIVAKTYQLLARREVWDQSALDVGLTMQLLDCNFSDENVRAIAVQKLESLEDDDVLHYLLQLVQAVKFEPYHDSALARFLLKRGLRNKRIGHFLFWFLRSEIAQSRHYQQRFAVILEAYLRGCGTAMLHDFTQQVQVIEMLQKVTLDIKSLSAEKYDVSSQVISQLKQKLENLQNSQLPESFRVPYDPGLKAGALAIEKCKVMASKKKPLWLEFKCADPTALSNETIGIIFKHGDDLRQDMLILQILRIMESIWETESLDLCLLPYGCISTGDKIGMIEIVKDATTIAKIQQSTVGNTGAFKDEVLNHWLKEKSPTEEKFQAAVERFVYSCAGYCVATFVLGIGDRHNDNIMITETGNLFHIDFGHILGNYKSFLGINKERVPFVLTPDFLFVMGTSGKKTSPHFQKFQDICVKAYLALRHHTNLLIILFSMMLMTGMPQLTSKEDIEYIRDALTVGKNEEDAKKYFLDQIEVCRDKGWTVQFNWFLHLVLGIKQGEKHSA

TGFBR2(h) = molecular target: T5, TGFBR2(h) (Homo sapiens, UniProt P37173)
T5 construct: purchased Eurofins (KinaseProfiler)
T5 sequence (P37173 23-567): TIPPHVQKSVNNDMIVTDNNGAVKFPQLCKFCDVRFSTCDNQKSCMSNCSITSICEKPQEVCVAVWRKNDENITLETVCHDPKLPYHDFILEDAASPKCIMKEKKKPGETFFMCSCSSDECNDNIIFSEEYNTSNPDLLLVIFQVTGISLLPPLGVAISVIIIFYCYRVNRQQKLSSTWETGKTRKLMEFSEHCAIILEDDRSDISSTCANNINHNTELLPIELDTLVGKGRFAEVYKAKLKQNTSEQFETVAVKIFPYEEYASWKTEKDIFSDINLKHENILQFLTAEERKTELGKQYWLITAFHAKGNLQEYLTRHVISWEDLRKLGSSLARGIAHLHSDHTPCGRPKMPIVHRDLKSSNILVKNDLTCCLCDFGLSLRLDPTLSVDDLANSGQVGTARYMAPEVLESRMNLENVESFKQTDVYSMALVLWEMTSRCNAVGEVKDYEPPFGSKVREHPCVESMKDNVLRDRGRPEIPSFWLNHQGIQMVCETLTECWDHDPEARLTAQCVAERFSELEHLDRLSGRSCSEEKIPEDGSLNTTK

LRRK2(h) = molecular target: T6, LRRK2(h) (Homo sapiens, UniProt Q5S007)
T6 construct: purchased Eurofins (KinaseProfiler)

EphB1(h) = molecular target: T7, EphB1(h) (Homo sapiens, UniProt P54762)
T7 construct: purchased Eurofins (KinaseProfiler)
T7 sequence (P54762 18-984): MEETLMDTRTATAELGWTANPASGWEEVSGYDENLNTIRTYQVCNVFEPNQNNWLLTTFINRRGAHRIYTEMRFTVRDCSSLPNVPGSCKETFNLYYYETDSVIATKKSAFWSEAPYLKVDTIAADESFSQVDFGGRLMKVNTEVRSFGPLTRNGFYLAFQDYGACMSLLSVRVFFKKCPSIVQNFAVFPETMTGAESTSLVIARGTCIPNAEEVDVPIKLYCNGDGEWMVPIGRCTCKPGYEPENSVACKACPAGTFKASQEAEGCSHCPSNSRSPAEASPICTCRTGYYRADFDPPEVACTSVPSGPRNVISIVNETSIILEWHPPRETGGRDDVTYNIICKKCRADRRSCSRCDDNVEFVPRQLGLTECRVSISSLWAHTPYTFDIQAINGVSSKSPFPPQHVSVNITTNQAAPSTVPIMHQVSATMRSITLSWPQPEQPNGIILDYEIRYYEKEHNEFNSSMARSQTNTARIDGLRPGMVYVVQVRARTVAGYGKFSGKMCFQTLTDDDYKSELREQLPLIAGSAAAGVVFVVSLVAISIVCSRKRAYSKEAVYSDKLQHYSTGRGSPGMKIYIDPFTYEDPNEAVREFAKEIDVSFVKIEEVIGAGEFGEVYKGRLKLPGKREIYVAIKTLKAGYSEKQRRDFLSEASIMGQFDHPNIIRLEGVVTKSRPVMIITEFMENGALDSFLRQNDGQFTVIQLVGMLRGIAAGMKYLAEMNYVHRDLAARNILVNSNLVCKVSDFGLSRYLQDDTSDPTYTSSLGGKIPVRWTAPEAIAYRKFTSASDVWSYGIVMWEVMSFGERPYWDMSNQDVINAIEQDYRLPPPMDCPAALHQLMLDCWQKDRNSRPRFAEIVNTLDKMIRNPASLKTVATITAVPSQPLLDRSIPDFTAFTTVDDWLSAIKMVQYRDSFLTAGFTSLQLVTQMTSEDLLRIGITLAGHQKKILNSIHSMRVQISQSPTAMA

TSSK3(h) = molecular target: T8, TSSK3(h) (Homo sapiens, UniProt Q96PN8)
T8 construct: purchased Eurofins (KinaseProfiler)
T8 sequence (Q96PN8 1-268): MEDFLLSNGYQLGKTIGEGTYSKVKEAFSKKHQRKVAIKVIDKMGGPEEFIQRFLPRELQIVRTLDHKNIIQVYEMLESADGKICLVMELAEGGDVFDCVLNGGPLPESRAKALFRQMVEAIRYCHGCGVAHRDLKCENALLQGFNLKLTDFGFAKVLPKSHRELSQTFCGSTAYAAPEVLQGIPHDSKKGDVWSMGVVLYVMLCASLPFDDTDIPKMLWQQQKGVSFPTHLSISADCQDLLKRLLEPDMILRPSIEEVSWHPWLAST

[2] = molecular target: T9, PI3 Kinase (p110α(H1047R)/p85α)(h) (Homo sapiens, UniProt P42336, H1047R)
T9 construct: purchased Eurofins (KinaseProfiler)
T9 sequence (P42336 whole entry H1047R): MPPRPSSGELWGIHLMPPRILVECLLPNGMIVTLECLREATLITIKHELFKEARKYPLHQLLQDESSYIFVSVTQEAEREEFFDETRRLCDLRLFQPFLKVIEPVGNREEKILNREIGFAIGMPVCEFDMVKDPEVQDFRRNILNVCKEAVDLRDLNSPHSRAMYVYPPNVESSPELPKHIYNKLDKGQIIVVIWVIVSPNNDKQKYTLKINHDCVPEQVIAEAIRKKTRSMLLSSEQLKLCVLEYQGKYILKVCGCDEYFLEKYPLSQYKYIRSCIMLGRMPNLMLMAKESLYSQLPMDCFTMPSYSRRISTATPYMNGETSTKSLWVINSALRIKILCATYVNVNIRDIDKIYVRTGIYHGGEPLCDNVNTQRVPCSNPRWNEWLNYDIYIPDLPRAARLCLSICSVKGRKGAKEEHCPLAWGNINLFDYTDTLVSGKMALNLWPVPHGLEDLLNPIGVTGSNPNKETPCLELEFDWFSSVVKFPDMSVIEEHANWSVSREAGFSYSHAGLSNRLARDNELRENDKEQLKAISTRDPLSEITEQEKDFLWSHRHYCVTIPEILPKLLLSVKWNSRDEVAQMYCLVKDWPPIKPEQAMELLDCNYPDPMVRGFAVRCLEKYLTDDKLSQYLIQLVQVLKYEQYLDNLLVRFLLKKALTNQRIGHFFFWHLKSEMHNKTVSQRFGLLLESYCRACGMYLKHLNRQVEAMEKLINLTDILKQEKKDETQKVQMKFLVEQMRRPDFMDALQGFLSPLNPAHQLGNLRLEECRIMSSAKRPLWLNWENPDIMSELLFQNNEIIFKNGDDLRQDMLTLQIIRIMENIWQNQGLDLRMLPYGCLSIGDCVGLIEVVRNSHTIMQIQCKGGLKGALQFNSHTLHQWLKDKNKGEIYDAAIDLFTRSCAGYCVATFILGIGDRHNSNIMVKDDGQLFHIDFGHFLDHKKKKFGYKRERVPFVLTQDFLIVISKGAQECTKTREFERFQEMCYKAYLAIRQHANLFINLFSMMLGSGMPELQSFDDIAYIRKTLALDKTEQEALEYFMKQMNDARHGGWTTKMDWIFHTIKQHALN
T9 sequence (P27986 whole entry partner): as the sequence (P27986 whole entry partner) above

Met(Y1248C)(h) = molecular target: T10, Met(Y1248C)(h) (Homo sapiens, UniProt P08581, Y1230C)
T10 construct: purchased Eurofins (KinaseProfiler)
T10 sequence (P08581 956-1390 Y1230C limits assumed): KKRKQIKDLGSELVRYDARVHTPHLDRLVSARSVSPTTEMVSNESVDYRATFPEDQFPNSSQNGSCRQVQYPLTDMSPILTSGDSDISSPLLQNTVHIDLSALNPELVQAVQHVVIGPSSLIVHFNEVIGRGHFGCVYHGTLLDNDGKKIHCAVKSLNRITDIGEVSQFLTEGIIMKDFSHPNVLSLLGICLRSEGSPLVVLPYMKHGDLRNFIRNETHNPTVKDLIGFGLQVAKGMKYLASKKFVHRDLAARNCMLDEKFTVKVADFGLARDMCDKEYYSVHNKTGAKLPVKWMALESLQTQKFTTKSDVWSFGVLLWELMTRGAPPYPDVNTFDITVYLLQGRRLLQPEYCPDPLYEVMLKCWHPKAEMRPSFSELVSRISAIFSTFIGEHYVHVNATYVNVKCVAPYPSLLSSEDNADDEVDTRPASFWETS

Compound: COc1cc(OC)c(Cl)c(-c2ccc3c(NC(=O)c4ccc(N5CCNC(C)(C)C5)cc4)n[nH]c3n2)c1Cl [3D185]
- inhibition at 0.01 µM ([1]; 10 nM): 1%
- inhibition at 0.1 µM ([1]; 100 nM): -4%
- inhibition at 1 µM ([1]; 1000 nM): 5%
- inhibition at 0.01 µM (Syk(h); 10 nM): -3%
- inhibition at 0.1 µM (Syk(h); 100 nM): -5%
- inhibition at 1 µM (Syk(h); 1000 nM): 20%
- inhibition at 0.01 µM (DNA-PK(h); 10 nM): 5%
- inhibition at 0.1 µM (DNA-PK(h); 100 nM): 2%
- inhibition at 1 µM (DNA-PK(h); 1000 nM): 0%
- inhibition at 0.01 µM (PI3 Kinase (p120γ)(h); 10 nM): 0%
- inhibition at 0.1 µM (PI3 Kinase (p120γ)(h); 100 nM): 1%
- inhibition at 1 µM (PI3 Kinase (p120γ)(h); 1000 nM): 3%
- inhibition at 0.01 µM (TGFBR2(h); 10 nM): -10%
- inhibition at 0.1 µM (TGFBR2(h); 100 nM): -5%
- inhibition at 1 µM (TGFBR2(h); 1000 nM): -9%
- inhibition at 0.01 µM (LRRK2(h); 10 nM): -10%
- inhibition at 0.1 µM (LRRK2(h); 100 nM): -3%
- inhibition at 1 µM (LRRK2(h); 1000 nM): 21%
- inhibition at 0.01 µM (EphB1(h); 10 nM): -9%
- inhibition at 0.1 µM (EphB1(h); 100 nM): 1%
- inhibition at 1 µM (EphB1(h); 1000 nM): 36%
- inhibition at 0.01 µM (TSSK3(h); 10 nM): 14%
- inhibition at 0.1 µM (TSSK3(h); 100 nM): 5%
- inhibition at 1 µM (TSSK3(h); 1000 nM): 5%
- inhibition at 0.01 µM ([2]; 10 nM): 1%
- inhibition at 0.1 µM ([2]; 100 nM): 3%
- inhibition at 1 µM ([2]; 1000 nM): -5%
- inhibition at 0.01 µM (Met(Y1248C)(h); 10 nM): -9%
- inhibition at 0.1 µM (Met(Y1248C)(h); 100 nM): -2%
- inhibition at 1 µM (Met(Y1248C)(h); 1000 nM): 5%
